The target of data set [1] is Sodium-dependent serotonin transporter (Homo sapiens) (UniProt P31645). In words: Inhibition of SERT at 10 uM.
The target in data set [2] is T1, Muscarinic acetylcholine receptor M2 (Homo sapiens) (UniProt P08172).
T1 sequence (whole entry): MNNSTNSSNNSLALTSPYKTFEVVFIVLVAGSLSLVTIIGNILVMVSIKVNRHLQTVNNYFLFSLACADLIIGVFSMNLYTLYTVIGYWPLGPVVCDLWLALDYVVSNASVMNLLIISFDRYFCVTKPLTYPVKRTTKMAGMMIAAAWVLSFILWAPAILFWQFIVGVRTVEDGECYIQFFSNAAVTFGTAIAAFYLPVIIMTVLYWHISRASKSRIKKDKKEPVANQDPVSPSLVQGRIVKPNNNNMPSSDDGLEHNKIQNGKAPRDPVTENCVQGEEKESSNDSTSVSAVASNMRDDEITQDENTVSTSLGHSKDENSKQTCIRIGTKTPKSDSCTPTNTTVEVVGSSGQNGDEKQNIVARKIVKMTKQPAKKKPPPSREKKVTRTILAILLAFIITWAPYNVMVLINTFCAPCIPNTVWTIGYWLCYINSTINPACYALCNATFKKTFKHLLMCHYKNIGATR
As to the kind of experiment: Inhibition of muscarinic M2 receptor at 10 uM.

Data set [3] concerns the target Sodium-dependent noradrenaline transporter (Homo sapiens) (UniProt P23975). As to the kind of experiment: Inhibition of NET at 10 uM.
The target of data set [4] is T2, Alpha-2A adrenergic receptor (Homo sapiens) (UniProt P08913).
T2 sequence (whole entry): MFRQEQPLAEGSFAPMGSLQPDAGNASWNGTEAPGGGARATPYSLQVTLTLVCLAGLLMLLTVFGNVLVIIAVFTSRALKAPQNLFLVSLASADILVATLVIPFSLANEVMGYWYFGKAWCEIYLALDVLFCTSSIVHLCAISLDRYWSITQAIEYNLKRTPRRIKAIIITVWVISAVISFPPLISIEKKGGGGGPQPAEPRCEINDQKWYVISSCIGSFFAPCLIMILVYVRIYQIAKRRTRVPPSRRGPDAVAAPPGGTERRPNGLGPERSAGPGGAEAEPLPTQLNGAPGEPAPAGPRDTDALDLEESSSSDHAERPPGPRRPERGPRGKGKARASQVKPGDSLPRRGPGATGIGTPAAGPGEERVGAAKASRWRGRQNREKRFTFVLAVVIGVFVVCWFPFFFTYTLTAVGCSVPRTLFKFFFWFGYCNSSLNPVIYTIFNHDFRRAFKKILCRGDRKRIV
As to the kind of experiment: Inhibition of adrenergic alpha2A receptor at 10 uM.

Data set [5] deals with Sodium-dependent dopamine transporter (Homo sapiens) (UniProt Q01959). In words: Inhibition of DAT at 10 uM.
The target of data set [6] is Somatostatin receptor type 5 (Homo sapiens) (UniProt P35346). In words: Inhibition of SST5 receptor at 10 uM.
Data set [7] concerns the target T3, Melanin-concentrating hormone receptor 1 (Homo sapiens, UniProt Q99705). In words: Binding affinity to MCHR1.
In data set [8] the target is T3, Melanin-concentrating hormone receptor 1. As to the kind of experiment: Antagonist activity at MCHR1 by cAMP assay. The class given is functional.
For data set [9], the target named is T4, 5-hydroxytryptamine receptor 2C (Homo sapiens) (UniProt P28335).
T4 sequence (whole entry): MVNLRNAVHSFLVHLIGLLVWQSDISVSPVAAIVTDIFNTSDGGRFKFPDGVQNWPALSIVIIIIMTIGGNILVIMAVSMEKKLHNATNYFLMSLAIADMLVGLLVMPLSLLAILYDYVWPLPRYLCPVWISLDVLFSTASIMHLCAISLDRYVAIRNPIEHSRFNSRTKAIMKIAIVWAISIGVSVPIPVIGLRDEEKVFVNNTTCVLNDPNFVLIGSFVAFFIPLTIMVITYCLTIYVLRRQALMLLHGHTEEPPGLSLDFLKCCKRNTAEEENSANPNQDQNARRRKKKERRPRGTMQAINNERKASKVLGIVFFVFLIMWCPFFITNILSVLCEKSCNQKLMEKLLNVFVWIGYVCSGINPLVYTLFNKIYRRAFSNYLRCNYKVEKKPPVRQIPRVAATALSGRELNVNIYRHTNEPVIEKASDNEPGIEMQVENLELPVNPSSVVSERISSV
As to the kind of experiment: Inhibition of 5HT2C receptor at 10 uM.

The target of data set [10] is D(3) dopamine receptor (Homo sapiens) (UniProt P35462). In words: Inhibition of dopamine D3 receptor at 10 uM.
Data set [11] has as its target T5, 5-hydroxytryptamine receptor 1A (Homo sapiens) (UniProt P08908).
T5 sequence (whole entry): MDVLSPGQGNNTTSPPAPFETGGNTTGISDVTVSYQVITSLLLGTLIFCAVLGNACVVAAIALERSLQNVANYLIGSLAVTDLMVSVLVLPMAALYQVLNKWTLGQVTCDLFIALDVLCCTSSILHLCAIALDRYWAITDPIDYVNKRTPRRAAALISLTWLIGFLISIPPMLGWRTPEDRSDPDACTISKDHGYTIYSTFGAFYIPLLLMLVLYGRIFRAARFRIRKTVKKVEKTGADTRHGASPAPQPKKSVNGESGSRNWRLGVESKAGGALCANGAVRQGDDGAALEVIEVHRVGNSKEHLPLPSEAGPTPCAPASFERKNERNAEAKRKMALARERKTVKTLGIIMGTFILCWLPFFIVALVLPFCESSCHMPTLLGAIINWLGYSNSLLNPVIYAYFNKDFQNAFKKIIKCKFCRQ
In words: Inhibition of 5HT1A receptor at 10 uM.

Data set [12] is described as follows: Ratio of drug level in brain to plasma in Sprague-Dawley rat after 5 mins. As to conditions: brain and plasma, read-out: BPR. Type of data set: ADME.
Data set [13] has as its system Rattus norvegicus. In words: Reduction of food intake in high fat diet fed Sprague-Dawley rat at 30 mg/kg, po bid. The class given is functional. On the set-up: scale not given: the % may be the effect or the level left.
Data set [14] can be described thus: Oral bioavailability in Sprague-Dawley rat at 30 mg/kg. Type of data set: ADME, organism-based. As to conditions: in vivo.
Data set [15] can be described thus: Clearance in Sprague-Dawley rat at 5 mg/kg, iv or 30 mg/kg, po. Type of data set: ADME, organism-based. Conditions: in vivo.
A short description of data set [16]: AUC in Sprague-Dawley rat plasma at 5 mg/kg, iv or 30 mg/kg, po. Type of data set: ADME, organism-based.
The test system of data set [17] is Rattus norvegicus. In words: Reduction of body weight in high fat diet fed Sprague-Dawley rat at 30 mg/kg, po bid after 12 weeks. Type of data set: functional. On the set-up: scale not given: the % may be the effect or the level left.
For data set [18], the species on record is Rattus norvegicus. As to the kind of experiment: Toxicity in high fat diet fed Sprague-Dawley rat after 12 weeks. The class given is organism-based. As to conditions: in vivo, 2016 h.
Data set [19] can be described thus: Cmax in Sprague-Dawley rat at 5 mg/kg, iv or 30 mg/kg, po. Conditions: in vivo. The class given is ADME, organism-based.
A short description of data set [20]: Volume of distribution at steady state in Sprague-Dawley rat at 5 mg/kg, iv or 30 mg/kg, po. Type of data set: ADME, organism-based. As to conditions: in vivo, read-out: Vdss.
The nature of data set [21]: Half life in Sprague-Dawley rat at 5 mg/kg, iv or 30 mg/kg, po. The class given is ADME, organism-based. Conditions: in vivo.

Consider nine compounds from ChEMBL document CHEMBL1141625, “Potent, selective MCH-1 receptor antagonists” (Bioorg Med Chem Lett, 2008).

Somatostatin receptor type 5 (Homo sapiens), sequence (P35346 whole entry): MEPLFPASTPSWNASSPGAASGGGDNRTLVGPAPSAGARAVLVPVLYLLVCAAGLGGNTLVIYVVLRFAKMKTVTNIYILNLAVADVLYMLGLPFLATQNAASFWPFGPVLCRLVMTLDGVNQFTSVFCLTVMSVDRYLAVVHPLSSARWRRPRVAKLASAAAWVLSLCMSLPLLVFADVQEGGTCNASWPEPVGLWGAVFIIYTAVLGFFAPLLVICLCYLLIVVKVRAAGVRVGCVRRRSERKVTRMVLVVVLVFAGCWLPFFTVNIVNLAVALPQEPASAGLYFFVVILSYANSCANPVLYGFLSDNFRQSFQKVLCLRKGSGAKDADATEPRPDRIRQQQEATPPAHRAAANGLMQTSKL
Sodium-dependent dopamine transporter (Homo sapiens), sequence (Q01959 whole entry): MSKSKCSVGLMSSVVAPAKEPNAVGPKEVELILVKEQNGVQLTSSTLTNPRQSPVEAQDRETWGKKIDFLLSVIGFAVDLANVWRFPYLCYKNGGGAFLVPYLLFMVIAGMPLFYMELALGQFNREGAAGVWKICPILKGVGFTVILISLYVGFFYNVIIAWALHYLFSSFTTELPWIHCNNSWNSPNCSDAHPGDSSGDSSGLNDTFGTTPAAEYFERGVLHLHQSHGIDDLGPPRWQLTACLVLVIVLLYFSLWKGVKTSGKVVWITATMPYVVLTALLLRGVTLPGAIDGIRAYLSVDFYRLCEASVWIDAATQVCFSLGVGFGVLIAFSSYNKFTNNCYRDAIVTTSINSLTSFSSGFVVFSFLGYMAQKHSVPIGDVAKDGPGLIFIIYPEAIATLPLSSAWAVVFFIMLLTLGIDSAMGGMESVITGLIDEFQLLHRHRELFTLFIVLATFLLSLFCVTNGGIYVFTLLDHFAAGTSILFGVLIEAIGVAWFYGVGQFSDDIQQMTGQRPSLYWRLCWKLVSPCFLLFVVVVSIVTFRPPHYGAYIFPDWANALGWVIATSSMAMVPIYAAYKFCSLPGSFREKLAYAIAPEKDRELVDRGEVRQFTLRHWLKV
Sodium-dependent serotonin transporter (Homo sapiens), sequence (P31645 whole entry, looked up): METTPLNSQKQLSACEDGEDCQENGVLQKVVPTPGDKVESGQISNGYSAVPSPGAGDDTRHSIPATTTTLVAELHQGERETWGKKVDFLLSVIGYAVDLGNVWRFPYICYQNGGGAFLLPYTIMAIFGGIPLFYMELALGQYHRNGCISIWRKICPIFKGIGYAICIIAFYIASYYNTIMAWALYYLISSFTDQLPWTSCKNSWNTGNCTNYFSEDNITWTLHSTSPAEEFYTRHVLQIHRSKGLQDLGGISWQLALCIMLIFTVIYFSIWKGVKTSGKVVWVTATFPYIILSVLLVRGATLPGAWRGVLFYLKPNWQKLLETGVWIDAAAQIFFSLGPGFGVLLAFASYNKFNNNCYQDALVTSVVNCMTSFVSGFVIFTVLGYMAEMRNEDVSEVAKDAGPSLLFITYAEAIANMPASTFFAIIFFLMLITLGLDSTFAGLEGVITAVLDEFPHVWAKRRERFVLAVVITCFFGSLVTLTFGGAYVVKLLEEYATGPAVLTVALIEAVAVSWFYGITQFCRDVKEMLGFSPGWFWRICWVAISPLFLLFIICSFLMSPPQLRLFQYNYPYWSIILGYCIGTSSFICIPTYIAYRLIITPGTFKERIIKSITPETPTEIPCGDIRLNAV
D(3) dopamine receptor (Homo sapiens), sequence (P35462 whole entry): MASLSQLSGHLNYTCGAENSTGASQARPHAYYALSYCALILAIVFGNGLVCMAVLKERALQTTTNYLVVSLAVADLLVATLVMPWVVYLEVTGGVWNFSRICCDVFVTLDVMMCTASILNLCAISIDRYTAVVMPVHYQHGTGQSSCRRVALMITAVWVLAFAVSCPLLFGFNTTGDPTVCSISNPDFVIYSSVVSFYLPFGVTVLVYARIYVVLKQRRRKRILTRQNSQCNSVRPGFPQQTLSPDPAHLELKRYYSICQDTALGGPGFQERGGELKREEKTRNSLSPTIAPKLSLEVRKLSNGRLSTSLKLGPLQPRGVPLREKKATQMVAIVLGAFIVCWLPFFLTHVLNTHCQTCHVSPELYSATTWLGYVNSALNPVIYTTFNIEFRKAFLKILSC
Sodium-dependent noradrenaline transporter (Homo sapiens), sequence (P23975 whole entry): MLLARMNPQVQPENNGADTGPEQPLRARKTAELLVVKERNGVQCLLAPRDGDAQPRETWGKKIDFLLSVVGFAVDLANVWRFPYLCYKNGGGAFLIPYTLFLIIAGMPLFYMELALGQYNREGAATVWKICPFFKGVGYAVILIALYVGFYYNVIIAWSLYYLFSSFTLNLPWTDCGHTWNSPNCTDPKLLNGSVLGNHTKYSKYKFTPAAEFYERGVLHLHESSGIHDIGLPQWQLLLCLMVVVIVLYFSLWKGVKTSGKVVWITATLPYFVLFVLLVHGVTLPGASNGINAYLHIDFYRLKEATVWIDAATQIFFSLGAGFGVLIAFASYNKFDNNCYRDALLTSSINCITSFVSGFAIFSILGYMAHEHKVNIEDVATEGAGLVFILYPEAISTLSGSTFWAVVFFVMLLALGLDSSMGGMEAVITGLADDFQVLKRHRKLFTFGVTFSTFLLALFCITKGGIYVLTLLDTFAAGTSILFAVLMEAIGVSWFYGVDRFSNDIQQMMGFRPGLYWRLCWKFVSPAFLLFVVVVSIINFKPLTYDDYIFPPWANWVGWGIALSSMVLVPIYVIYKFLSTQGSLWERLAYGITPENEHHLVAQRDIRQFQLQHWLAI
T3 sequence (Q99705 whole entry): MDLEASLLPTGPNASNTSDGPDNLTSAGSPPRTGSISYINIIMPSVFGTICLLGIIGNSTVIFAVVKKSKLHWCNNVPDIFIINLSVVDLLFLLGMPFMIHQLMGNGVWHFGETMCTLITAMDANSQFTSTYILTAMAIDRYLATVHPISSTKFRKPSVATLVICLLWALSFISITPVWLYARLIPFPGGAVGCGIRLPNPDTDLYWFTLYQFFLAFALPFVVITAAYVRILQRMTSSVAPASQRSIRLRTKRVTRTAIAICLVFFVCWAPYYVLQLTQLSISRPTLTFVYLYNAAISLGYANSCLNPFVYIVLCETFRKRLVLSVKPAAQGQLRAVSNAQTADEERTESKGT

As for `Cc1ccc2c(c1)nc(C)n2C1CCN(CCCc2cccc(NC(=O)C(C)C)c2)CC1`, the inhibition came out at 83% in [1]; 18% in [2]; 57% in data set [3]; 37% in data set [4]; 23% in data set [5]; 13% in [6]. The inhibition in data set [9] amounted to 4%. This compound also gave a Ki in data set [7] of 25 nM. The same compound displayed an EC50 in [8] of 175 nM. In data set [8], this compound yielded an Efficacy of 96%.
Take `CO[C@@H]1CN(C[C@H]2Cc3ccc(C#N)cc3C2)CC[C@H]1n1c(C(C)(C)O)nc2cc(C)c(F)cc21`: affinity in data set [7] was put at a Ki of 0.5 nM.
Consider `CO[C@@H]1CN(CC2Cc3ccccc3C2)CC[C@H]1n1c(C)nc2cc(C)ccc21`, for which the inhibition in data set [1] worked out at 14%; in data set [2], 6%; in data set [3] it was 24%; in [10], 40%; in data set [4], 33%; in data set [5], 8%. Besides, the inhibition in data set [11] is 63%; in data set [6], -2%; in data set [9], -8%. For the same compound, the affinity in [7], expressed as Ki, was 47 nM. The concentration for a half-maximal effect (EC50) in data set [8] came out at 69 nM. Moreover, the Efficacy in data set [8] is 90%.
For the compound `CO[C@@H]1CN(C[C@H]2Cc3ccc(Br)cc3C2)CC[C@H]1n1c(C(C)(C)O)nc2cc(C)ccc21`, the inhibition in [1] is 28%; in [2] it was -8%; in data set [3], 77%; in data set [10] it was 79%; in data set [4] it was 34%; in data set [5] it was 68%. The inhibition turned out to be 17% in data set [11] and 14% in [9]. In [7], the Ki is 10 nM. Moreover, the EC50 in data set [8] turned out to be 30 nM. Besides, the Efficacy in data set [8] came to 98%.
Consider `CO[C@@H]1CN(C[C@H]2Cc3ccc(Br)cc3C2)CC[C@H]1n1c(C)nc2cc(C)ccc21`, for which the inhibition turned out to be 59% in data set [1]; 48% in data set [2]; 69% in data set [3]; 84% in data set [10]; 81% in data set [4]; 80% in data set [5]. Moreover, the values for the inhibition in data set [11] and in data set [6] were 31% and 54%, respectively. Moreover, affinity in data set [7] was put at a Ki of 5 nM. Besides, the response in data set [8] was half-maximal at 20 nM (EC50). The Efficacy in [8] was found to be 92%.
With `CO[C@@H]1CN(C[C@H]2Cc3ccc(C#N)cc3C2)CC[C@H]1n1c(C(C)(C)O)nc2cc(C)ccc21`, the inhibition was 6% in data set [1]; 3% in data set [2]; 12% in data set [3]; 22% in data set [10]; 12% in [4]; -6% in data set [5]. The values for the inhibition in [11] and in data set [6] were 14% and 23%, respectively. Further, the Kp at 5 min in [12] turned out to be 0.9. Besides, the Activity in data set [13] was 28%; in data set [17], -0.7%; in data set [18], “Non-toxic”. The compound further gave a bioavailability in data set [14] of 47%. The compound further yielded a clearance in data set [15] of 49.5 mL/min/kg. This compound also yielded an AUC in data set [16] of 4730 ng·h/mL. Besides, the Cmax in [19] was 1300 ng/mL. The Vd in data set [20] stood at 3.6 L/kg. This compound also had a half-life in [21] of 1.9 h. The Ki in data set [7] came to 3 nM. The response in data set [8] was half-maximal at 17 nM (EC50). In data set [8], this compound had an Efficacy of 85%.
For `CO[C@@H]1CN(C[C@@H]2Cc3ccc(NC(=O)C(C)C)cc3C2)CC[C@H]1n1c(C)nc2cc(C)ccc21`, the inhibition in data set [1] turned out to be 32%; in [2], 3%; in data set [3], 1%; in data set [4] it was 7%; in data set [5], 10%; in data set [9], 3%. The Kp at 5 min in [12] came out at 0.06. The compound also showed a bioavailability in [14] of 61%. In data set [15], the clearance came out at 36.5 mL/min/kg. This compound also showed an AUC in [16] of 8520 ng·h/mL. Further, the Cmax in [19] came out at 1280 ng/mL. Further, the Vd in data set [20] was 14 L/kg. This compound gave a half-life in [21] of 2.5 h. In [7], this compound registered an inhibition constant Ki of 31 nM. Besides, in [8], the midpoint of the response, the EC50, lay at 40 nM. In data set [8], this compound had an Efficacy of 74%.
In the case of `CO[C@H]1CN(CCCc2cccc(NC(=O)C3CC3)c2)CC[C@@H]1n1c(C)nc2cc(C)ccc21`, the inhibition in data set [1] amounted to 67%; in [2], 11%; in data set [3], 61%; in data set [10] it was 52%; in data set [4] it was 15%; in data set [5], 32%. Moreover, the inhibition in data set [6] was determined as 16%. Moreover, affinity in [7] was put at a Ki of 5.2 nM. In addition, in [8], the 50% effective concentration (EC50) turned out to be 20 nM. The compound also registered an Efficacy in data set [8] of 82%.
Consider `COC(=O)Nc1ccc2c(c1)C[C@@H](CN1CC[C@@H](n3c(C)nc4cc(C)ccc43)[C@H](OC)C1)C2`, for which the inhibition was determined as 95% in [1]; 22% in [2]; 64% in [3]; 28% in data set [10]; 14% in [4]; 65% in [5]. Further, the inhibition in data set [11] was determined as 29%; in data set [6], 10%; in data set [9], 8%. In data set [7], this compound displayed a Ki of 20 nM. Moreover, in data set [8], the EC50 came to 20 nM. The compound further came in with an Efficacy in data set [8] of 81%.
